24 molecules from patent US20240051958A1, “DIACYLGLYCEROL KINASE (DGK) ALPHA INHIBITORS AND USES THEREOF” (priority 2022, published 2024) can be followed below.

One may read the IC50 as the concentration at which inhibition is half-maximal. A lower IC50 goes with greater potency in that assay.

Assay [1] has as its system Human Pan T cells. Description: IL-2 Release Detection Assay. It counts as cell-based. The conditions noted are these: for Activation fold: Top activation/DMSO control; for Activation % at 100 nM: fitted curve at 100 nM/DMSO control*100%. On the procedure: Add dilutions of compounds into the cells and incubate at 37° C. &5% CO2 for 24 hours. IL-2 in cell supernatant was detected by ELISA Kit (R&D, DY202). […] Top and Bottom: Plateaus in same units as Y. LogEC50: same log units as X. Activation fold: Top activation/DMSO control. Activation % at 100 nM: Activation of non-linear regression equation curve at the concentration of 100 nM/DMSO control*100%.

Assay [2] has as its target DGKA (Homo sapiens (Human), UniProt P23743). The experiment in a line: DGKA Inhibition ADP-Glo Assay. It counts as biochemical. The conditions noted are these: 40 μM ATP, 200 μM DLG in substrate working solution, 25° C., 60 min. On the procedure: The DGKA inhibition reactions were performed using ADP-Glo assay. The reactions were carried out in 50 mM HEPES, 100 mM NaCl, 10 mM MgCl2, 1 mM CaCl2, 0.005% TritonX-100 and 1 mM DTT as working solution (pH=7.5). 30 nL DMSO solution of each test compound (Top concentration 0.4 μM with 10 point, 4-fold dilution series for each compound) were transferred to 384 well plate by Echo and 5 μL DGKA (SignalChem, D21-10BG) enzyme working solution at 2×final reaction concentration was added to each well. After incubated at 25° C. for 15 minutes, 5 μL substrate working solution contain 40 μM ATP (Promega, V915B) and 200 μM DLG (SignalChem, D430-59) were added to initiate reaction. After enzymatic reaction at 25° C. for 60 min, ADP Glo assay reagents (Promega, V9102) were added and luminescence was recorded using an EnVision following the instruction of manual. […] The IC50 value was calculated via a regression analysis of the inhibition rate.
(In ADP-Glo the light output rises with the ADP produced.)

DGKA, sequence (P23743 whole entry): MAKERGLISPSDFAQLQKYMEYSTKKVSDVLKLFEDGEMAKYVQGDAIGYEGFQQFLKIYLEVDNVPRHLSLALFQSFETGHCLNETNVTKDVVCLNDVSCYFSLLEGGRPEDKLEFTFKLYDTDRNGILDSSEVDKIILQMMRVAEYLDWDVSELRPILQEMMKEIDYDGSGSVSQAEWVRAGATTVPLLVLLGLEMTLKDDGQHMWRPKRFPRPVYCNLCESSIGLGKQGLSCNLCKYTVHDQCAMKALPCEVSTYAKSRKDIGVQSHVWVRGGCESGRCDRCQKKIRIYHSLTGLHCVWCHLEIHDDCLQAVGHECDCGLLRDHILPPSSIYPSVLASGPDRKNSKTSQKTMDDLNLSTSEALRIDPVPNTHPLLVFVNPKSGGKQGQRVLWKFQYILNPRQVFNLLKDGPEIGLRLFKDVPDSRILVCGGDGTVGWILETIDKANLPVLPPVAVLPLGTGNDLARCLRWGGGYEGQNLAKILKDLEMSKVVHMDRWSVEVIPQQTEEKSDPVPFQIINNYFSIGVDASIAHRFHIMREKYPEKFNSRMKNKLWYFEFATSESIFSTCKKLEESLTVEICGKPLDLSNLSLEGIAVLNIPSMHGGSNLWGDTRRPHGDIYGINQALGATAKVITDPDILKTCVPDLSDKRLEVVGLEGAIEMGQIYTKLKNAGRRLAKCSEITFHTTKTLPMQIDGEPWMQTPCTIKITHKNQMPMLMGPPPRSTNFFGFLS

Turning to `Cc1ccc2oc(C3CCN(c4cc(=O)n(C)c5ccc(Cl)cc45)CC3)nc2c1` [Example 2, 6-chloro-1-methyl-4-(4-(5-methylbenzo[d]oxazol-2-yl)piperidin-1-yl)quinolin-2(1H)-one], in assay [1], the Activation fold turned out to be 5.3 and the “Activation % at 100 nM” value came out at 234%. The molecule further had an IC50 in assay [2] of 0.47 nM.

With `Cc1ccc2oc(C3CCN(c4cc(=O)n(C)c5ccc(C#N)cc45)CC3)nc2c1` [Example 3, 1-methyl-4-(4-(5-methylbenzo[d]oxazol-2-yl)piperidin-1-yl)-2-oxo-1,2-dihydroquinoline-6-carbonitrile], in assay [1], the Activation fold was determined as 7.8 and the “Activation % at 100 nM” value is 370%. The IC50 in assay [2] came out at 2.35 nM.

As to `Cc1ccc2oc(C3CCN(c4nc(=O)n(C)c5ccc(Cl)cc45)CC3)nc2c1` [Example 4, 6-chloro-1-methyl-4-(4-(5-methylbenzo[d]oxazol-2-yl)piperidin-1-yl)quinazolin-2(1H)-one], in assay [1], the Activation fold was found to be 3.5 and the “Activation % at 100 nM” value was 211%. The molecule further had an IC50 in assay [2] of 4.43 nM.

In turn, `Cc1ccc2oc(C3CCN(c4nc(=O)n(C)c5ccc(C#N)cc45)CC3)nc2c1` [Example 5, 1-methyl-4-(4-(5-methylbenzo[d]oxazol-2-yl)piperidin-1-yl)-2-oxo-1,2-dihydroquinazoline-6-carbonitrile] had an IC50 in assay [2] of 103 nM.

`Cc1ccc2oc(C3CCN(c4cc(=O)n(C)c5ccc(F)cc45)CC3)nc2c1` [Example 6, 6-fluoro-1-methyl-4-(4-(5-methylbenzo[d]oxazol-2-yl)piperidin-1-yl)quinolin-2(1H)-one] showed an IC50 in assay [2] of 1.23 nM.

For `Cc1ccc2oc(C3CCN(c4nc(=O)n(C)c5ccc(F)cc45)CC3)nc2c1` [Example 7, 6-fluoro-1-methyl-4-(4-(5-methylbenzo[d]oxazol-2-yl)piperidin-1-yl)quinazolin-2(1H)-one], in assay [2], the IC50 turned out to be 16 nM.

`Cc1ccc2oc(N3[C@@H]4CC[C@H]3CN(c3c(C#N)c(=O)n(C)c5ccc(F)cc35)C4)nc2c1` [Example 8, 6-fluoro-1-methyl-4-((1R,5S)-8-(5-methylbenzo[d]oxazol-2-yl)-3,8-diazabicyclo[3.2.1]octan-3-yl)-2-oxo-1,2-dihydroquinoline-3-carbonitrile] showed a 50% inhibitory concentration (IC50) in assay [2] of 7.74 nM.

On to `Cc1ccc2oc(C3CCN(c4c(C#N)c(=O)n(C)c5ccc(Cl)nc45)CC3)nc2c1` [Example 9, 6-chloro-1-methyl-4-(4-(5-methylbenzo[d]oxazol-2-yl)piperidin-1-yl)-2-oxo-1,2-dihydro-1,5-naphthyridine-3-carbonitrile], for which, in assay [1], the Activation fold is 7.7 and the “Activation % at 100 nM” value is reported as 206%. This molecule also displayed an IC50 in assay [2] of 2.04 nM.

Consider `Cc1ccc2oc(C3CCN(c4cc(=O)n(C)c5ccc(Cl)nc45)CC3)nc2c1` [Example 10, 6-chloro-1-methyl-4-(4-(5-methylbenzo[d]oxazol-2-yl)piperidin-1-yl)-1,5-naphthyridin-2(1H)-one], for which, in assay [1], the Activation fold is given as 7.3 and the “Activation % at 100 nM” value is 143%. For the same molecule, the midpoint of inhibition in assay [2], the IC50, lay at 0.36 nM.

For `Cn1c(=O)cc(N2CCC(c3nc4cc(F)ccc4o3)CC2)c2nc(Cl)ccc21` [Example 11, 6-chloro-4-(4-(5-fluorobenzo[d]oxazol-2-yl)piperidin-1-yl)-1-methyl-1,5-naphthyridin-2(1H)-one], in assay [1], the Activation fold stood at 6.1 and the “Activation % at 100 nM” value worked out at 169%. This molecule had an IC50 in assay [2] of 0.66 nM.

As to `Cc1ccc2oc(C3CCN(c4nc(=O)n(C)c5ccc(Cl)nc45)CC3)nc2c1` [Example 13, 6-chloro-1-methyl-4-(4-(5-methylbenzo[d]oxazol-2-yl)piperidin-1-yl)pyrido[3,2-d]pyrimidin-2(1H)-one], the IC50 in assay [2] came to 4.11 nM.

For the molecule `Cc1ccc2oc(C3CCN(c4nc(=O)n(C)c5ccc(C#N)nc45)CC3)nc2c1` [Example 14, 1-methyl-4-(4-(5-methylbenzo[d]oxazol-2-yl)piperidin-1-yl)-2-oxo-1,2-dihydropyrido[3,2-d]pyrimidine-6-carbonitrile], the IC50 in assay [2] amounted to 143 nM.

In the case of `COCCOc1cc2c(nc1Cl)c(N1CCC(c3nc4cc(C)ccc4o3)CC1)cc(=O)n2C` [Example 15, 6-chloro-7-(2-methoxyethoxy)-1-methyl-4-(4-(5-methylbenzo[d]oxazol-2-yl)piperidin-1-yl)-1,5-naphthyridin-2(1H)-one], in assay [1], the Activation fold stood at 6.5 and the “Activation % at 100 nM” value is recorded as 214%. In assay [2], it took 0.19 nM to reach half-maximal inhibition (IC50).

`COCCOc1cc2c(nc1C#N)c(N1CCC(c3nc4cc(C)ccc4o3)CC1)cc(=O)n2C` [Example 16, 3-(2-methoxyethoxy)-5-methyl-8-(4-(5-methylbenzo[d]oxazol-2-yl)piperidin-1-yl)-6-oxo-5,6-dihydro-1,5-naphthyridine-2-carbonitrile]: in assay [1], the Activation fold came to 6.29 and the “Activation % at 100 nM” value is listed as 253%. In addition, in assay [2], the IC50 is 0.35 nM.

Take `Cc1ccc2oc(C3CCN(c4cc(=O)n(C)c5cc(NCCO)c(Cl)nc45)CC3)nc2c1` [Example 17, 6-chloro-7-((2-hydroxyethyl)amino)-1-methyl-4-(4-(5-methylbenzo[d]oxazol-2-yl)piperidin-1-yl)-1,5-naphthyridin-2(1H)-one]: in assay [1], the Activation fold was 8.2 and the “Activation % at 100 nM” value was determined as 159%. In assay [2], this molecule came in with an IC50 of 0.12 nM.

`Cc1ccc2oc(C3CCN(c4cc(=O)n(C)c5cc(NCCO)c(C#N)nc45)CC3)nc2c1` [Example 18, 3-((2-hydroxyethyl)amino)-5-methyl-8-(4-(5-methylbenzo[d]oxazol-2-yl)piperidin-1-yl)-6-oxo-5,6-dihydro-1,5-naphthyridine-2-carbonitrile]: in assay [1], the Activation fold worked out at 6.9 and the “Activation % at 100 nM” value is given as 355%. In addition, in assay [2], the IC50 worked out at 0.1 nM.

As to `Cc1ccc2oc(C3CCN(c4cc(=O)n(C)c5cc(NCCO)cnc45)CC3)nc2c1` [Example 19, 7-((2-hydroxyethyl)amino)-1-methyl-4-(4-(5-methylbenzo[d]oxazol-2-yl)piperidin-1-yl)-1,5-naphthyridin-2(1H)-one], in assay [2], the IC50 came out at 2.36 nM.

Regarding `Cc1ccc2oc(C3CCN(c4cc(=O)n(C)c5cc(OC6CCOC6)c(Cl)nc45)CC3)nc2c1` (stereo not drawn) [Example 20, 6-chloro-1-methyl-4-(4-(5-methylbenzo[d]oxazol-2-yl)piperidin-1-yl)-7-((tetrahydrofuran-3-yl)oxy)-1,5-naphthyridin-2(1H)-one], the IC50 in assay [2] was found to be 0.13 nM.

As for `Cc1ccc2oc(C3CCN(c4cc(=O)n(C)c5cc(OC6CCOC6)c(C#N)nc45)CC3)nc2c1` (stereo not drawn) [Example 21, 5-methyl-8-(4-(5-methylbenzo[d]oxazol-2-yl)piperidin-1-yl)-6-oxo-3-((tetrahydrofuran-3-yl)oxy)-5,6-dihydro-1,5-naphthyridine-2-carbonitrile], in assay [1], the Activation fold was determined as 10.1 and the “Activation % at 100 nM” value was found to be 520%. This molecule also registered an IC50 in assay [2] of 0.23 nM.

Molecule `Cc1ccc2oc(C3CCN(c4cc(=O)n(C)c5cc(OCCO)c(Cl)nc45)CC3)nc2c1` [Example 22, 6-chloro-7-(2-hydroxyethoxy)-1-methyl-4-(4-(5-methylbenzo[d]oxazol-2-yl)piperidin-1-yl)-1,5-naphthyridin-2(1H)-one] showed an IC50 in assay [2] of 0.15 nM.

Take `Cc1ccc2oc(C3CCN(c4cc(=O)n(C)c5cc(OCCCO)c(C#N)nc45)CC3)nc2c1` [Example 24, 3-(3-hydroxypropoxy)-5-methyl-8-(4-(5-methylbenzo[d]oxazol-2-yl)piperidin-1-yl)-6-oxo-5,6-dihydro-1,5-naphthyridine-2-carbonitrile]: in assay [1], the Activation fold was 25.6 and the “Activation % at 100 nM” value came to 679%. Moreover, in assay [2], the IC50 was 0.31 nM.

On to `Cc1ccc2oc(C3CCN(c4cc(=O)n(C)c5cc(OC6CCOCC6)c(C#N)nc45)CC3)nc2c1` [Example 25, 5-methyl-8-(4-(5-methylbenzo[d]oxazol-2-yl)piperidin-1-yl)-6-oxo-3-((tetrahydro-2H-pyran-4-yl)oxy)-5,6-dihydro-1,5-naphthyridine-2-carbonitrile], for which 5.29 nM corresponded to half-maximal inhibition in assay [2] (IC50).

In assay [2], `Cc1ccc2oc(C3CCN(c4cc(=O)n(C)c5cc(OCCN)c(C#N)nc45)CC3)nc2c1` [Example 26, 3-(2-aminoethoxy)-5-methyl-8-(4-(5-methylbenzo[d]oxazol-2-yl)piperidin-1-yl)-6-oxo-5,6-dihydro-1,5-naphthyridine-2-carbonitrile] yielded an IC50 of 3.34 nM.

The molecule `Cc1ccc2oc(C3CCN(c4cc(=O)n(C)c5cc(OC6CCNC6)c(C#N)nc45)CC3)nc2c1` (stereo not drawn) [Example 27, 5-methyl-8-(4-(5-methylbenzo[d]oxazol-2-yl)piperidin-1-yl)-6-oxo-3-(pyrrolidin-3-yloxy)-5,6-dihydro-1,5-naphthyridine-2-carbonitrile] yielded an IC50 in assay [2] of 13.6 nM.
